Common to all, as to type: biochemical
One assay has as its target T1, Recombinant human PKD2 (Homo sapiens, UniProt Q9BZL6).
T1 sequence (Q9BZL6 1-878): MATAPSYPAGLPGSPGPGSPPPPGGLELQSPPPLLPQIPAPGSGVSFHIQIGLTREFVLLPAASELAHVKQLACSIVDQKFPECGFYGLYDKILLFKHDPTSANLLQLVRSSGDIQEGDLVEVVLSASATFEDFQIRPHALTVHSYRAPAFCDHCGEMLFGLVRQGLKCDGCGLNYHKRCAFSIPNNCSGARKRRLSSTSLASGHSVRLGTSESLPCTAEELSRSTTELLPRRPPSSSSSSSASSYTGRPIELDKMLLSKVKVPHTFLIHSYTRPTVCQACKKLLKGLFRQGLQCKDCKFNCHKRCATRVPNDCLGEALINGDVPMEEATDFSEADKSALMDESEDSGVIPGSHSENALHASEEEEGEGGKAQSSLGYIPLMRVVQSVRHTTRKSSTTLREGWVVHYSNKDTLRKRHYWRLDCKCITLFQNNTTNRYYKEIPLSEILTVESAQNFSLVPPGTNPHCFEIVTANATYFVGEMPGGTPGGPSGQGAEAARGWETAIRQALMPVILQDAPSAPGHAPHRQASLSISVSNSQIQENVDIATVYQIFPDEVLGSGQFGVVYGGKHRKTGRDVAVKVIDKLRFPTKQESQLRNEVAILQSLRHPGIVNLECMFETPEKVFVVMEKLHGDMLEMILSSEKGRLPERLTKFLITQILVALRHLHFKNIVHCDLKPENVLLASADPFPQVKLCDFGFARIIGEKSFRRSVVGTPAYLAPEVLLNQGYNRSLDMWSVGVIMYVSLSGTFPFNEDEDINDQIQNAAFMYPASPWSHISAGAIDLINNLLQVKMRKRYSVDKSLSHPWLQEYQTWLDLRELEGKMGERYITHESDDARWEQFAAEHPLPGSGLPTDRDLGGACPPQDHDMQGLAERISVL
As to the kind of experiment: Radiometric PKD kinase assay, 10-point IC50.

A further assay has as its target T2, PKD1 (Homo sapiens, UniProt Q15139).
T2 construct: GST; purchased Enzo Life sciences (Farmingdale, NY)
T2 sequence (Q15139 1-912): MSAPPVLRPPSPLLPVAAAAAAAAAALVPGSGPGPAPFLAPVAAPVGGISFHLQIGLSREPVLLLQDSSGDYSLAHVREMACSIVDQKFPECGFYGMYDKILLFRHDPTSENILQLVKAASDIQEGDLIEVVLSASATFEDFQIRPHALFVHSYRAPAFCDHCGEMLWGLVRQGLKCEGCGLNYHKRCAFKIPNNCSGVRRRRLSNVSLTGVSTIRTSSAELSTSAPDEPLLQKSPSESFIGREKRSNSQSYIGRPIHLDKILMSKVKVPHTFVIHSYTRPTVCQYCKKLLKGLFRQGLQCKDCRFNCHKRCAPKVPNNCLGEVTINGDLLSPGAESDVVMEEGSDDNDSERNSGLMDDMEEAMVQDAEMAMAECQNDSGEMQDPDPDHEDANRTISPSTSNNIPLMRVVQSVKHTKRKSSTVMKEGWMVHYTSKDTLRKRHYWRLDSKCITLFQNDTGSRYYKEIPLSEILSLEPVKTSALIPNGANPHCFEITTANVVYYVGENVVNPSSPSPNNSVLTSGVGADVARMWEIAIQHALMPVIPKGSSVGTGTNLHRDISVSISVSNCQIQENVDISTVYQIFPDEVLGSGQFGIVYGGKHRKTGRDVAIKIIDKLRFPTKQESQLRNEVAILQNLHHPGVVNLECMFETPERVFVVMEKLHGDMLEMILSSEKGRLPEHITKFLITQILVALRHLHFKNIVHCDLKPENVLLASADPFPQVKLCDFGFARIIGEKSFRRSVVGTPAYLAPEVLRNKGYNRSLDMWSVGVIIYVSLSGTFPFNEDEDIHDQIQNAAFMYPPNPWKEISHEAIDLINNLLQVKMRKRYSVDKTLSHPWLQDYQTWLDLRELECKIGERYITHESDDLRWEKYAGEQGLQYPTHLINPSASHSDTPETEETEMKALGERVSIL
The experiment in a line: ATP competition, Lineweaver-Burk analysis of PKD1 kinase activity. The following applies: Lineweaver-Burk plots, increasing ATP.

The target of another assay is T3, PKCα (Homo sapiens, UniProt P17252).
T3 construct: purchased SignalChem (Richmond, BC, Canada)
As to the kind of experiment: In vitro radiometric PKC kinase assay. The procedure:
(§1) The PKC kinase assay was carried out by co-incubating 1 µCi [γ-^32P]ATP, 20 µM ATP, 50 ng of purified PKCα or PKCδ and 5 µg of myelin basic protein 4–14, 0.25 mg/mL bovine serum albumin, 0.1 mg/mL phosphatidylcholine/phosphatidylserine (80/20%) (1 µM), 1 µM phorbol dibutyrate in 50 µL of kinase buffer containing 50 mM Tris-HCl, pH 7.5, 4 mM MgCl2 and 10 mM β-mercaptoethanol. For the CAMK assay, 50 ng of CAMKIIα and 2 µg syntide-2 substrate in 50 µL kinase buffer were incubated with 0.1 mM MgCl2, 1 µCi of [γ-^32P] ATP, 70 µM ATP. 0.5 mM CaCl2 and 30 ng/µL calmodulin were preincubated for 15 min on ice and then added in the kinase reaction. The reactions were incubated at 30°C for 10 min and 25 µL of the reaction was spotted on Whatman P81 filter paper. The filter paper was washed 3 times in 0.5% phosphoric acid, air dried and counted using Beckman LS6500 multipurpose scintillation counter.

A further assay deals with T4, PKCδ (Homo sapiens, UniProt Q05655).
T4 construct: purchased SignalChem (Richmond, BC, Canada)
The experiment in a line: In vitro radiometric PKC kinase assay. As to the method:
as §1

Another assay concerns the target T5, CAMKIIα (Homo sapiens, UniProt Q9UQM7).
T5 construct: purchased SignalChem (Richmond, BC, Canada)
The experiment in a line: In vitro radiometric CAMK kinase assay. The following applies: up to 10 µM. The procedure: as §1

Data on two compounds can be found in article PMC3781056, “New Pyrazolopyrimidine Inhibitors of Protein Kinase D as Potent Anticancer Agents for Prostate Cancer Cells” (PLoS ONE, 2013).

As usually defined, the IC50 is the midpoint of a concentration-inhibition curve.

Entries after “also recorded” stand apart in the source; their conditions may differ. Read-outs that look alike come from different tables or passages of the source.

T4 sequence (Q05655 whole entry): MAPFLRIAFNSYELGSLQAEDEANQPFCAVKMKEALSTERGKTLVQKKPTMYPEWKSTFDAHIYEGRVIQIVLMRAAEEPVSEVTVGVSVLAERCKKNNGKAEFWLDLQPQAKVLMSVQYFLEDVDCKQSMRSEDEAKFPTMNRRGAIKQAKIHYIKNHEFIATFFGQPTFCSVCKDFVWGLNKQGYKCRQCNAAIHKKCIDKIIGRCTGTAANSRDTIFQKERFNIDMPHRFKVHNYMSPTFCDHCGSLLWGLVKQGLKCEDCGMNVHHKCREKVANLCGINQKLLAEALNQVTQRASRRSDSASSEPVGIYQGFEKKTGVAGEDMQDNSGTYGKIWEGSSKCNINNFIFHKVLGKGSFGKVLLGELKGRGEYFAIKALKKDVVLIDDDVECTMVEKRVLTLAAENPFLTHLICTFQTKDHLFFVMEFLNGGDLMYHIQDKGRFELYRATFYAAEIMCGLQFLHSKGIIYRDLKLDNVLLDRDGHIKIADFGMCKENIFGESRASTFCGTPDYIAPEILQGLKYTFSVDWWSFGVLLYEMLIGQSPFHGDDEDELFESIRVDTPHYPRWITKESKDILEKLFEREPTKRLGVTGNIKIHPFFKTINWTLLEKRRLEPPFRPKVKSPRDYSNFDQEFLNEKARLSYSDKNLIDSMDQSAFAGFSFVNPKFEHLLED
Source text for PKD1: Lineweaver-Burk plots were generated by plotting the reciprocal of reaction velocities (1/v) against the reciprocal of ATP concentrations (1/[ATP]) at different compound concentrations. The points were fitted by linear regression.
Data presented were representative of three independent experiments.
Procedure for Recombinant human PKD2: Recombinant human PKD1, 2, or 3 proteins were incubated in a mixture containing a peptide substrate derived from a PKD substrate, HDAC-5, and 10 different concentrations of the two compounds.
The IC50 values were calculated as the mean ±SEM of at least three independent experiments with triplicate determinations at each concentration of drug in each experiment. The data were plotted as a function of drug concentration and a representative graph is shown.

With `CC(C)(C)n1nc(-c2cccc3ccccc23)c2c(N)ncnc21` [Compound 1-NA-PP1, 1-(t-Butyl)-3-(naphthalen-1-yl)-1H-pyrazolo[3,4-d]pyrimidin-4-amine], the IC50 on Recombinant human PKD2 (IC50 PKD2, mean ± SEM) turned out to be 133 nM; at Recombinant human PKD2 (PKD2 IC50, value printed in the figure, representative graph), 133 nM. In addition, the “mode of PKD1 inhibition with respect to ATP” value on PKD1 is reported as “ATP-competitive inhibitors”. In addition, the “inhibition of PKCα, in words” value against PKCα (0.1, 1 and 10 µM) is “No significant inhibitory activities; also recorded: did not significantly inhibit”. The “inhibition of PKCδ, in words” value against PKCδ (0.1, 1 and 10 µM) is “No significant inhibitory activities; also recorded: did not significantly inhibit”. Besides, the “inhibition of CAMKIIα, in words” value against CAMKIIα is “little activity; also recorded: did not significantly inhibit”.
In the case of `O=C(c1ccc(Nc2nccc(-c3cc4ccccc4s3)n2)cc1)N1CCC(N2CCCC2)CC1` [IKK-16, reference compound], the IC50 at Recombinant human PKD2 (mean ± SEM, read-out: IC50 PKD2) stood at 115 nM; at Recombinant human PKD2 (value in the figure, representative graph, read-out: PKD2 IC50), 108 nM. Moreover, the “mode of PKD1 inhibition with respect to ATP” value on PKD1 is “ATP-competitive inhibitors”. For the same compound, the “inhibition of PKCα” value against PKCα (10 µM) was more than 50%. For the same compound, the “inhibition of PKCδ” value against PKCδ (10 µM) is reported as more than 50%. Also, the “inhibition of CAMKIIα, in words” value at CAMKIIα is listed as “almost completely abrogated its activity”.
